Data as given in patent publication US8703722B2, “Inhibitors of F18+ E coli binding” (priority 2008, dated 2014).

Legend:
[1] = tested on: F18 positive reference E. coli strain (107/86); assay: In vitro villous adhesion assay after treatment of porcine villi with agents; assay type: cell-based, Escherichia coli; details: villi of four pigs treated 1 h at room temperature; 1% Triton X-100; 10 mM NaIO4 in 0.2M sodium acetate pH 4.5
Text: (§1) The nature of the F18R on porcine small intestinal villous enterocytes was investigated using an in vitro villous adhesion inhibition assay (Cox, E., Houvenaghel, A., 1993. Vet. Microbiol. 34(1), 7-18; Verdonck, F., Cox, E., van Gog, K., Van der Stede, Y., Duchateau, L., Deprez, P., Goddeeris, B. M., 2002. Vaccine 20(23-24), 2995-3004). Briefly, a 20 cm intestinal segment was collected from the mid jejunum of a euthanized pig, rinsed three times with ice cold PBS, and fixed with Krebs-Henseleit buffer (160 mM, pH 7.4) containing 1% (v/v) formaldehyde for 30 min at 4° C. Thereafter, the villi were gently scraped from the mucosae with a glass slide and stored in Krebs-Henseleit buffer at 4° C. Treatment of villi with acetone, methanol, 1% Triton® X-100, 10 mM NaIO4 in 0.2M sodium acetate, pH 4.5, or 0.2M sodium acetate, pH 4.5, without NaIO4, respectively, was performed at room temperature on a rotating wheel in a volume of 500 μl during 1 h. Next, the villi were washed 6 times with Krebs-Henseleit buffer followed by addition of 4×10^8 bacteria of the F18 positive reference E. coli strain (107/86), or the F4ac-expressing E. coli strain GIS 26, to an average of 50 villi in a total volume of 500 μl PBS, supplemented with 1% (w/v) D-mannose in order to prevent adhesion mediated by type 1 pili. These mixtures were incubated at room temperature for 1 h while being gently shaken. Villi were examined by phase-contrast microscopy at a magnification of 600, and the number of bacteria adhering along 50 μm brush border was quantitatively evaluated by counting the number of adhering bacteria at 20 randomly selected places, after which the mean bacterial adhesion was calculated.
(§2) To examine the character of the F18R, intestinal villi isolated from four pigs were treated with different agents that affect lipids or carbohydrates on the enterocyte cell membrane. Treatment was followed by assessment of adhesion of F18-fimbriated E. coli to the villus epithelium.

[2] = tested on: F4ac-expressing E. coli strain GIS 26; assay: In vitro villous adhesion assay after treatment of porcine villi with agents (control strain); assay type: cell-based, Escherichia coli; details: villi treated 1 h at room temperature; 1% Triton X-100; 10 mM NaIO4 in 0.2M sodium acetate pH 4.5
Text: as §1, §2

| Molecule | Adhesion of F18-fimbriated E. coli to porcine intestinal villi after treatment of the villi [1] | Adhesion of control F4ac-fimbriated E. coli strain to porcine intestinal villi after treatment of the villi [2] |
| --- | --- | --- |
| CO [methanol] | completely abolished | no or only little effect |
| Triton® X-100 | completely abolished | no or only little effect |
